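Growth conditions: 96-well plates. Treatment: test compound, 48 hours, 5 concentrations. Analysis: linear interpolation between bracketing concentrations; unreached endpoints set to highest concentration. At the TGI there is no net growth.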
Legend:
Experiment in all cases: NCI tumour cell line growth inhibition, 48 h
786-0 renal = test system: 786-0 renal
A498 renal = test system: A498 renal
A549 NSCLC = test system: A549 NSCLC
ACHN renal = test system: ACHN renal
BT-549 breast = test system: BT-549 breast
CAKI-1 renal = test system: CAKI-1 renal
CCRF-CEM leukemia = test system: CCRF-CEM leukemia
COLO 205 colon = test system: COLO 205 colon
DU-145 prostate = test system: DU-145 prostate
EKVX NSCLC = test system: EKVX NSCLC
HCC-2998 colon = test system: HCC-2998 colon
HCT-116 colon = test system: HCT-116 colon
HCT-15 colon = test system: HCT-15 colon
HL-60(TB) leukemia = test system: HL-60(TB) leukemia
HOP-62 NSCLC = test system: HOP-62 NSCLC
HOP-92 NSCLC = test system: HOP-92 NSCLC
HS 578T breast = test system: HS 578T breast
HT29 colon = test system: HT29 colon
IGROV1 ovarian = test system: IGROV1 ovarian
K-562 leukemia = test system: K-562 leukemia
KM12 colon = test system: KM12 colon
LOX IMVI melanoma = test system: LOX IMVI melanoma
M14 melanoma = test system: M14 melanoma
MALME-3M melanoma = test system: MALME-3M melanoma
MCF7 breast = test system: MCF7 breast
MDA-MB-231 breast = test system: MDA-MB-231 breast
MDA-MB-435 = test system: MDA-MB-435
MDA-N = test system: MDA-N
MOLT-4 leukemia = test system: MOLT-4 leukemia
NCI-H226 lung = test system: NCI-H226 lung
NCI-H23 lung = test system: NCI-H23 lung
NCI-H460 lung = test system: NCI-H460 lung
NCI-H522 lung = test system: NCI-H522 lung
NCI/ADR-RES ovarian = test system: NCI/ADR-RES ovarian
OVCAR-3 ovarian = test system: OVCAR-3 ovarian
OVCAR-4 ovarian = test system: OVCAR-4 ovarian
OVCAR-5 ovarian = test system: OVCAR-5 ovarian
OVCAR-8 ovarian = test system: OVCAR-8 ovarian
PC-3 prostate = test system: PC-3 prostate
RPMI-8226 leukemia = test system: RPMI-8226 leukemia
RXF 393 renal = test system: RXF 393 renal
SF-268 CNS = test system: SF-268 CNS
SF-295 CNS = test system: SF-295 CNS
SF-539 CNS = test system: SF-539 CNS
SK-MEL-2 melanoma = test system: SK-MEL-2 melanoma
SK-MEL-28 melanoma = test system: SK-MEL-28 melanoma
SK-MEL-5 melanoma = test system: SK-MEL-5 melanoma
SK-OV-3 ovarian = test system: SK-OV-3 ovarian
SN12C renal = test system: SN12C renal
SNB-19 CNS = test system: SNB-19 CNS
SNB-75 CNS = test system: SNB-75 CNS
SR leukemia = test system: SR leukemia
SW-620 colon = test system: SW-620 colon
T-47D breast = test system: T-47D breast
TK-10 renal = test system: TK-10 renal
U251 CNS = test system: U251 CNS
UACC-257 melanoma = test system: UACC-257 melanoma
UACC-62 melanoma = test system: UACC-62 melanoma
UO-31 renal = test system: UO-31 renal

FC(F)(F)c1ccc2c(c1)nc(Cc1ccccc1)n2C[C@@H]1CCCN2CCCCC12 (some centres undefined)
TGI (786-0 renal): 28.6 µM | TGI (A498 renal): 29.1 µM | TGI (A549 NSCLC): 28.8 µM | TGI (ACHN renal): 26.5 µM | TGI (BT-549 breast): 28.7 µM | TGI (CAKI-1 renal): 31.1 µM | TGI (CCRF-CEM leukemia): > 54.8 µM | TGI (COLO 205 colon): 31.2 µM | TGI (DU-145 prostate): 29.3 µM | TGI (EKVX NSCLC): 28.9 µM | TGI (HCC-2998 colon): 10.6 µM | TGI (HCT-116 colon): 27.9 µM | TGI (HCT-15 colon): 30.6 µM | TGI (HL-60(TB) leukemia): 13.9 µM | TGI (HOP-62 NSCLC): 28.7 µM | TGI (HOP-92 NSCLC): 27.2 µM | TGI (HS 578T breast): 57 µM | TGI (HT29 colon): 26.8 µM | TGI (IGROV1 ovarian): 28.9 µM | TGI (K-562 leukemia): > 64.8 µM | TGI (KM12 colon): 30.3 µM | TGI (LOX IMVI melanoma): 30.3 µM | TGI (M14 melanoma): 23 µM | TGI (MALME-3M melanoma): 31.1 µM | TGI (MCF7 breast): 28.6 µM | TGI (MDA-MB-231 breast): 27.8 µM | TGI (MDA-MB-435): 30.4 µM | TGI (MDA-N): 26.2 µM | TGI (MOLT-4 leukemia): > 52.7 µM | TGI (NCI-H226 lung): 40.4 µM | TGI (NCI-H23 lung): 30.8 µM | TGI (NCI-H460 lung): 31.9 µM | TGI (NCI-H522 lung): 31.6 µM | TGI (NCI/ADR-RES ovarian): 30.9 µM | TGI (OVCAR-3 ovarian): 28 µM | TGI (OVCAR-4 ovarian): 31.5 µM | TGI (OVCAR-5 ovarian): 31.7 µM | TGI (OVCAR-8 ovarian): 29.7 µM | TGI (PC-3 prostate): 28.5 µM | TGI (RPMI-8226 leukemia): 82.7 µM | TGI (RXF 393 renal): 23 µM | TGI (SF-268 CNS): 31 µM | TGI (SF-295 CNS): 29.6 µM | TGI (SF-539 CNS): 35.6 µM | TGI (SK-MEL-2 melanoma): 30.6 µM | TGI (SK-MEL-28 melanoma): 32.3 µM | TGI (SK-MEL-5 melanoma): 29.6 µM | TGI (SK-OV-3 ovarian): 31.3 µM | TGI (SN12C renal): 27 µM | TGI (SNB-19 CNS): 28.6 µM | TGI (SNB-75 CNS): 29.9 µM | TGI (SR leukemia): > 100 µM | TGI (SW-620 colon): > 65.7 µM | TGI (T-47D breast): 30.4 µM | TGI (TK-10 renal): 31.3 µM | TGI (U251 CNS): 29.2 µM | TGI (UACC-257 melanoma): 28.9 µM | TGI (UACC-62 melanoma): 30.7 µM | TGI (UO-31 renal): 0.744 µM

From PubChem BioAssay (NCI)
